The results in this text go back to BindingDB's records for patent US20240293587 (Technische University Munchen, 2024).

Experiment [1] concerns the target C-X-C chemokine receptor type 4 (Homo sapiens, UniProt P61073). In words: Competition Binding Assay. On the procedure: (§1) For IC50 determination using Jurkat or Eμ-Myc1080 cells, samples containing 2×10^5 cells (or 4×10^5 cells; exact cell number used in the respective evaluations is given in the results section) in Hank's balanced salt solution (HBSS)/1% Bovine Serum Albumin (BSA) were incubated with 100.000 cpm of the respective radioligand (approx. 0.1 nM) in the presence of increasing concentrations (10−11 to 10−5 M) of the respective peptide of interest (n=3 per concentration). The total sample volume was 250 μL. After incubation at room temperature (RT) for 120 min with gentle agitation (200 mot/min), the tubes were centrifuged (5 min, 450g, Megafuge 1.0, Heraeus Thermo Scientific) and the supernatant was carefully removed. After washing twice with 400 μL of cold HBSS, the amount of cell-bound radioligand was quantified using a […]-counter.[0403]In the case of the adherent C6 glioma cells, cells were harvested using Trypsin/EDTA (0.05 % and 0.02%) in PBS one day prior to the experiment, centrifuged and resuspended with culture medium to a concentration of app. 150.000 cells/mL. The suspension was transferred into PLL-coated twenty-four-well plates (1 mL/well, Greiner, Solingen. Germany) and placed in the incubator overnight. On the day of the experiment, the culture medium was removed and the cells were washed with 250 μL of HBSS before being left to equilibrate in 200 μL of HBSS (1% BSA) at 37° C. for a minimum of 15 min before the experiment. Then, cells were incubated with 100.000 cpm of the respective radioligand (approx. 0.1 nM) in the presence of increasing concentrations (10−11 to 10−5 M) of the respective compound of interest (n=3 per concentration). The total sample volume was 250 μL. After incubation at room temperature (RT) for 120 min, the supernatant was removed and cells were washed twice with 200 μL of cold HBSS. Then, cells were lysed using 250 μL of 1 N NaOH, the lysate was transferred to vials and combined with 250 μL of HBSS used for rinsing the wells. Quantification of the amount of free and bound activity was performed in a […]-counter.

The target of experiment [2] is C-X-C chemokine receptor type 4 (Mus musculus, UniProt P70658). The experiment can be described thus: Competition Binding Assay. On the procedure:
as §1

Starred links: 1 amine or outer side, 2 acyl side, 3 side chain; linkers in the order of their positions; H or OH if unused. Non-standard residues stand in square brackets, D forms with d. Residues, ends and D or L forms follow the SMILES beside them. Groups on a side chain read outwards from the residue. *: point of attachment. dAla(N-(6-guanidinohexyl)) = C[C@@H](NCCCCCCNC(=N)N)C(=O)O; X1 = C[C@H](C(=O)[*:2])N(CCCCCCNC(=N)NCCCCCCN[*:3])[*:1]; Propanoyl(3-PO3H2) = O=C(CCP(=O)(O)O)*; 2Nal = N[C@@H](Cc1ccc2ccccc2c1)C(=O)O; AEEA = NCCOCCOCC(=O)O; Ahx = NCCCCCC(=O)O Where only a bound is given, the exact number is not on record here.

Chain of C-X-C chemokine receptor type 4 (Mus musculus, UniProt P70658) (P70658 whole entry): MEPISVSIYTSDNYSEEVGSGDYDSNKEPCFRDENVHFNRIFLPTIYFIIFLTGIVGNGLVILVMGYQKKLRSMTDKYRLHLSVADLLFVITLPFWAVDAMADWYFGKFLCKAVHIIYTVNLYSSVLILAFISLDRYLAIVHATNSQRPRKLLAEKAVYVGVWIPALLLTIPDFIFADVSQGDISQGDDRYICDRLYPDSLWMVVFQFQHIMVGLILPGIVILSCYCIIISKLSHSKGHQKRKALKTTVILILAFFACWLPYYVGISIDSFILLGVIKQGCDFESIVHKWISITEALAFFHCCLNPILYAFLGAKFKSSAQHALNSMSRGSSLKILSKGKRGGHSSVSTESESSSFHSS
Chain of C-X-C chemokine receptor type 4 (Homo sapiens, UniProt P61073) (P61073 whole entry): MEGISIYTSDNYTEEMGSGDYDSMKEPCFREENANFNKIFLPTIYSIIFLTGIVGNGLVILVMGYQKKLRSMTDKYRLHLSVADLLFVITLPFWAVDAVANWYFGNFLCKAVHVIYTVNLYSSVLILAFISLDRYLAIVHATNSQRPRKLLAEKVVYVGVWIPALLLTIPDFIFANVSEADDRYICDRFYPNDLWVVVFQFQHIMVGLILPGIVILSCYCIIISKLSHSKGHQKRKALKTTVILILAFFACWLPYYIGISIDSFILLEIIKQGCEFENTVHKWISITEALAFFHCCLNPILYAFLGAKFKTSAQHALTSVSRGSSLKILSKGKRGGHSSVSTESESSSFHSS

For orientation: IC50 means the concentration at which inhibition is half-maximal. In experiment [1], `CC(=O)NCCNC(=N)NCCCCCCN1C(=O)[C@@H](Cc2ccc(O)cc2)NC(=O)CNC(=O)[C@H](Cc2ccc3ccccc3c2)NC(=O)[C@H](CCCNC(=N)N)NC(=O)[C@H]1C` [US20240293587, Compound P1] registered an IC50 of 3.1 nM. The same measure, in the same setting: under `CC(=O)NCCCNC(=N)NCCCCCCN1C(=O)[C@@H](Cc2ccc(O)cc2)NC(=O)CNC(=O)[C@H](Cc2ccc3ccccc3c2)NC(=O)[C@H](CCCNC(=N)N)NC(=O)[C@H]1C` [US20240293587, Compound P2] stands 1.7 nM; under `CC(=O)NCCCCCNC(=N)NCCCCCCN1C(=O)[C@@H](Cc2ccc(O)cc2)NC(=O)CNC(=O)[C@H](Cc2ccc3ccccc3c2)NC(=O)[C@H](CCCNC(=N)N)NC(=O)[C@H]1C` [US20240293587, Compound P4], 32.1 nM; under `CC(=O)NCCCCCCNC(=N)NCCCCCCN1C(=O)[C@@H](Cc2ccc(O)cc2)NC(=O)CNC(=O)[C@H](Cc2ccc3ccccc3c2)NC(=O)[C@H](CCCNC(=N)N)NC(=O)[C@H]1C` [US20240293587, Compound P5], 9.8 nM.

`C[C@@H]1C(=O)N[C@@H](CCCNC(=N)N)C(=O)N[C@@H](Cc2ccc3ccccc3c2)C(=O)NCC(=O)N[C@H](Cc2ccc(O)cc2)C(=O)N1CCCCCCNC(=N)NCCCCCCNC(=O)CCCCCNC(=O)CCCCCNC(=O)CCP(=O)(O)O` [US20240293587, Compound P5k] (cyclo([2Nal]G[dY][X1]([Ahx-Ahx-Propanoyl(3-PO3H2)])R)) gave an IC50 in experiment [1] of 90 nM. `C[C@@H]1C(=O)N[C@@H](CCCNC(=N)N)C(=O)N[C@@H](Cc2ccc3ccccc3c2)C(=O)NCC(=O)N[C@H](Cc2ccc(O)cc2)C(=O)N1CCCCCCNC(=N)NCCCCCCNC(=O)COCCOCCNC(=O)COCCOCCNC(=O)CCP(=O)(O)O` [US20240293587, Compound P5m] (cyclo([2Nal]G[dY][X1]([AEEA-AEEA-Propanoyl(3-PO3H2)])R)) gave a half-inhibitory concentration (IC50) in experiment [1] of 52 nM. Regarding `C#CCCCCNC(=N)NCCCCCCN1C(=O)[C@@H](Cc2ccc(O)cc2)NC(=O)CNC(=O)[C@H](Cc2ccc3ccccc3c2)NC(=O)[C@H](CCCNC(=N)N)NC(=O)[C@H]1C` [US20240293587, Compound P6], the results for the IC50 in experiment [2] and in experiment [1] were 6.2 nM and 3.2 nM, respectively. Taken in the same sequence, the figures for `CC(=O)NC(=N)NCCCCCCN1C(=O)[C@@H](Cc2ccc(O)cc2)NC(=O)CNC(=O)[C@H](Cc2ccc3ccccc3c2)NC(=O)[C@H](CCCNC(=N)N)NC(=O)[C@H]1C` [US20240293587, Compound P7] were 1.6 nM and 2.5 nM. In the case of `CC(=O)NCC(=O)NC(=N)NCCCCCCN1C(=O)[C@@H](Cc2ccc(O)cc2)NC(=O)CNC(=O)[C@H](Cc2ccc3ccccc3c2)NC(=O)[C@H](CCCNC(=N)N)NC(=O)[C@H]1C` [US20240293587, Compound P8], the IC50 in experiment [1] stood at 13.2 nM. For `CC(=O)NCCCCCC(=O)NC(=N)NCCCCCCN1C(=O)[C@@H](Cc2ccc(O)cc2)NC(=O)CNC(=O)[C@H](Cc2ccc3ccccc3c2)NC(=O)[C@H](CCCNC(=N)N)NC(=O)[C@H]1C` [US20240293587, Compound P9], the IC50 in experiment [1] was 78.7 nM.

`C#CCCC(=O)NC(=N)NCCCCCCN1C(=O)[C@@H](Cc2ccc(O)cc2)NC(=O)CNC(=O)[C@H](Cc2ccc3ccccc3c2)NC(=O)[C@H](CCCNC(=N)N)NC(=O)[C@H]1C` [US20240293587, Compound P10]: the IC50 in experiment [2] was found to be 5.5 nM; in experiment [1], 2 nM. In the case of `CC(=O)N[C@@H](CCCCNC(=O)CSC[C@H]1NC(=O)[C@H](Cc2ccc3ccccc3c2)NC(=O)[C@H](CCCNC(=N)N)NC(=O)[C@@H](C)N(CCCCCCNC(=N)N)C(=O)[C@@H](Cc2ccc(O)cc2)NC1=O)C(N)=O` [US20240293587, Compound Pc1], the IC50 in experiment [1] was 61 nM. Same read-out and setting: under `CC(=O)NCCCCCCNC(=O)CSC[C@H]1NC(=O)[C@H](Cc2ccc3ccccc3c2)NC(=O)[C@H](CCCNC(=N)N)NC(=O)[C@@H](C)N(CCCCCCNC(=N)N)C(=O)[C@@H](Cc2ccc(O)cc2)NC1=O` [US20240293587, Compound Pc2] stands 57 nM; under `CC(=O)NCCCCCCSC[C@H]1NC(=O)[C@H](Cc2ccc3ccccc3c2)NC(=O)[C@H](CCCNC(=N)N)NC(=O)[C@@H](C)N(CCCCCCNC(=N)N)C(=O)[C@@H](Cc2ccc(O)cc2)NC1=O` [US20240293587, Compound Pc3], more than 400 nM; under `CC(=O)NCc1ccc(CNC(=O)CSC[C@H]2NC(=O)[C@H](Cc3ccc4ccccc4c3)NC(=O)[C@H](CCCNC(=N)N)NC(=O)[C@@H](C)N(CCCCCCNC(=N)N)C(=O)[C@@H](Cc3ccc(O)cc3)NC2=O)cc1` [US20240293587, Compound Pc4], 53 nM. On the same count and under the same terms, the value for `CC(=O)NCc1cccc(CNC(=O)CSC[C@H]2NC(=O)[C@H](Cc3ccc4ccccc4c3)NC(=O)[C@H](CCCNC(=N)N)NC(=O)[C@@H](C)N(CCCCCCNC(=N)N)C(=O)[C@@H](Cc3ccc(O)cc3)NC2=O)c1` [US20240293587, Compound Pc5] was 14 nM.

Consider `C[C@@H]1C(=O)N[C@@H](CCCNC(=N)N)C(=O)N[C@@H](Cc2ccc3ccccc3c2)C(=O)N[C@H](CSCC(=O)NCc2cccc(CNC(=O)CN3CCN(CC(=O)O)CCN(CC(=O)O)CCN(CC(=O)O)CC3)c2)C(=O)N[C@H](Cc2ccc(O)cc2)C(=O)N1CCCCCCNC(=N)N` [US20240293587, Compound Pc5a], for which, in experiment [1], the IC50 is 78 nM. On the same count and under the same terms, under `C[C@@H]1C(=O)N[C@@H](CCCNC(=N)N)C(=O)N[C@@H](Cc2ccc3ccccc3c2)C(=O)NCC(=O)N[C@H](Cc2ccc(O)cc2)C(=O)N1CCCCCCNC(=N)N` [US20240293587, Compound R] (cyclo([dY][dAla(N-(6-guanidinohexyl))]R[2Nal]G)) stands 0.8 nM.
